Source: patent US10183038B2, “Method for preventing and treating renal disease” (L & F Research LLC, priority 2010, dated 2019)

What was measured:
[1] = test system: human podocytes exposed to DM w DN sera; assay: Human podocytes exposed to sera of diabetic patients with DN (blebbing, cholesterol, apoptosis); format: cell-based; conditions: normal human podocytes exposed to sera of patients with diabetic nephropathy; cholesterol depletion with Methyl-beta-cyclodextrin
Description: DN is a chronic progressive disease that affects a sizable subset of patients with diabetes. Despite the identification of multiple risk factors that contribute to the development of DN, it has remained difficult to identify the subset of patients with diabetes at risk for DN. This led to testing to determine if an in vitro prediction assay could be developed. For this purpose, the following experiments were conducted. Non-identifiable samples of patient sera were obtained. Samples consisted of serum collected from 10 patients with diabetes and macroalbuminuria (DM w DN) and 10 diabetic normoalbuminuric patients (DM w/o DN) well matched for HgA1C (7.9%), total cholesterol levels and the duration of diabetes. Normal human sera (NHS) from 10 age and sex matched healthy subjects were also utilized as controls. Differentiated human podocytes were serum starved for 24 hours and then exposed to 4% serum of NHS, DM w/o DN, DM w DN for 24 hours. […] Total cholesterol was also determined with an enzymatic reaction. Total cholesterol was increased in podocytes treated with DM w DN when compared to DM w/o DN and NHS (FIG. 3D, *p<0.05), a phenomenon that was prevented by CD (FIG. 3D, #p<0.05). Cell blebbing was predictive of DN, as sera collected from patients before progressing to DN at the time they were normoalbuminuric already caused cell blebbing (FIG. 3E).

LPS induced proteinuria = LPS induced proteinuria in mice; format: in vivo; conditions: 4000 mg/kg intravenously 1 hour prior to LPS, urines 30 hours after first LPS injection, p<0.05 LPS+CD versus LPS
Description: FIG. 6A-FIG. 6B: Depicts that CD partially prevents LPS induced podocyte damage. FIG. 6A: Depicts the results when HPBCD was administered intravenously (4000 mg/kg) 1 hour prior to LPS injection (200 ug/20 g mouse intraperitoneally). Urines were collected […] after LPS injection and analyzed for albumin/creatinine ratio by ELISA. p<0.05 when comparing LPS+CD versus LPS. FIG. 6B: Depicts that CD prevented LPS induction of MyD88 in isolated glomeruli in vivo. Referring to FIG. 6A, the antiproteinuric effects of CD were tested in an established experimental model of LPS induced proteinuria. Three mice per group were utilized. Mice were left untreated (CTRL), or received one injection of 4000 mg/kg Hydroxypropyl-beta-cyclodextrin (CD), or two injections of 200 μg LPS 24 hours apart (LPS), or received 4000 mg/kg of CD 1 hour prior to LPS treatment (LPS+CD). Urines were collected at 30 hours after the first LPS injection and analyzed for albumin and creatinine content by ELISA. Albuminuria was determined as the ratio between albumin and creatinine (μg/mg).

[2] = test system: patients at high risk for recurrent FSGS after transplantation; assay: Clinical outcome after kidney transplantation in patients at high risk for recurrent FSGS, rituximab vs historical controls; format: in vivo, human
CD19+ cells = assay: CD19 count in transplanted FSGS patients after rituximab; format: in vivo, human; conditions: N = 27
Excerpt: W=white, B=black, M=male, F=female, ESRD=end stage renal disease, LD=living donor, DD=deceased donor. ΔeGFR: variation of eGFR. *p<0.05.

SMPDL-3b [3] = assay: SMPDL-3b expression in podocytes cultured with FSGS patient sera; format: cell-based, human; conditions: recurrent FSGS (FIG. 2)
Description: FIG. 2A: Depicts low- and high-power images of immunoperoxidase staining for SMPDL-3b and synaptopodin in post-reperfusion biopsies of patients with recurrent (REC) and non-recurrent (NON-REC) FSGS. Arrows point to podocytes. Scale bars: 25 μm top and 15 μm bottom. […] All kidney biopsies were obtained prior to initiation of treatment with rituximab. An average of 13±4 glomeruli per patient were analyzed. *p<0.05, unpaired Student's t test. Data are mean±s.d. […] Data are mean±s.d. *p<0.05 and **p<0.01 by one-way ANOVA. […] Data are mean±s.d. *p<0.05 and **p<0.01 by one-way ANOVA. […] Data are mean±s.d. *p<0.05 and **p<0.01 by one-way ANOVA. […] Data are mean±s.d. *p<0.05 and **p<0.01 by one-way ANOVA.
(A) Low- and high-power images of immunoperoxidase staining for SMPDL-3b and synaptopodin in post-reperfusion biopsies of patients with recurrent (REC) and non-recurrent (NON-REC) FSGS. Arrows point to podocytes. […] All kidney biopsies were obtained prior to initiation of treatment with rituximab. […] (G) ASMase activity per μg of total lysate protein, as evaluated by ELISA.

SMPDL-3B [4] = target: T1, SMPDL-3B (Homo sapiens, UniProt Q92485); conditions: cited from earlier work
T1 sequence (Q92485 19-455): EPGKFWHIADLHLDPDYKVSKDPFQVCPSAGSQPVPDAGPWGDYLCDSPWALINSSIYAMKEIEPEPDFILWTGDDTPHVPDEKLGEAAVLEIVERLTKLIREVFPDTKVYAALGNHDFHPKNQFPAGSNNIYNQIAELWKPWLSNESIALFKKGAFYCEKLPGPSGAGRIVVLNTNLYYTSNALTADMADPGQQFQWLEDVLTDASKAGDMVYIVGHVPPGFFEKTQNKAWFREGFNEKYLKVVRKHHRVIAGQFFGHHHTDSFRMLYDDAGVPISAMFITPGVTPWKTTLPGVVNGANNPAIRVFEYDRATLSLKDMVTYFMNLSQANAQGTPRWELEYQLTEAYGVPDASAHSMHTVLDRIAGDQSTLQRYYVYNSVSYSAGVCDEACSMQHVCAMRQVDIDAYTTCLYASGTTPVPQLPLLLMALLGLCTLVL

[5] = number of patients (%), N = 27, one dose of rituximab (375 mg/m^2) within 24 hours of transplant

For Methyl-beta-cyclodextrin, the cell blebbing [1] was “prevents”.
For `CC(O)COC[C@H]1O[C@@H]2O[C@H]3[C@H](O)[C@@H](O)[C@@H](O[C@H]4[C@H](O)[C@@H](O)[C@@H](O[C@H]5[C@H](O)[C@@H](O)[C@@H](O[C@H]6[C@H](O)[C@@H](O)[C@@H](O[C@H]7[C@H](O)[C@@H](O)[C@@H](O[C@H]8[C@H](O)[C@@H](O)[C@@H](O[C@H]1[C@H](O)[C@H]2O)O[C@@H]8COCC(C)O)O[C@@H]7COCC(C)O)O[C@@H]6COCC(C)O)O[C@@H]5COCC(C)O)O[C@@H]4COCC(C)O)O[C@@H]3COCC(C)O` (stereo partly drawn) [Hydroxypropyl-beta-cyclodextrin], the “LPS induced proteinuria (albumin/creatinine ratio by ELISA)” value (LPS induced proteinuria) was “protects from Lipopolysaccharide (LPS) induced proteinuria”.
For rituximab, the Graft survival ([2]; 6 months, N = 27) was 100%, the Graft survival ([2]; 12 months, N = 27) was 95.8% and the “difference in graft survival between groups” value ([2]; at 6 and 12 months, rituximab group vs control group) was “no significant difference”. The “incidence of recurrent nephrotic range proteinuria and need for plasmapheresis” value ([2]; between day 3 and 30 after transplantation, rituximab group vs control group) was “significantly lower”, the “Nephrotic proteinuria w/i 1 Mo” value [2, 5] was 7 (26%) and the “Plasmapheresis w/I 1 Mo” value [2, 5] was 8 (30%). For the same compound, the “CD 19 count” value (CD19+ cells; Week 0) was 360 ± 223, the “CD 19 count” value (CD19+ cells; Week 0.5) was 107 ± 115 and the “CD 19 count” value (CD19+ cells; Week 1) was 45 ± 31. The “CD 19 count” value (CD19+ cells; Week 2) was 16 ± 23, the “CD 19 count” value (CD19+ cells; Week 3) was 5 ± 6 and the “CD 19 count” value (CD19+ cells; Week 4) was 6 ± 7. The “downregulation of SMPDL-3b” value (SMPDL-3b [3]) was “prevents the downregulation of SMPDL-3b” and the “binding to SMPDL-3B” value (SMPDL-3B [4]) was “found to bind SMPDL-3B”.
